Results: article PMC11249646, “Small-Molecule Disruptors of the Interaction between Calcium- and Integrin-Binding Protein 1 and Integrin αIIbβ3 as Novel Antiplatelet Agents” (ACS Pharmacology & Translational Science, 2024)
Read-outs that look alike come from different tables or passages of the source.

Target: T1, CIB1 and αIIb interaction (CIB1-GST : F-αIIb peptide) (Homo sapiens, UniProt Q99828)
T1 construct: made in house; host or cells: BL-21 plus RIL cells (E. coli)
T1 sequence (Q99828 1-191): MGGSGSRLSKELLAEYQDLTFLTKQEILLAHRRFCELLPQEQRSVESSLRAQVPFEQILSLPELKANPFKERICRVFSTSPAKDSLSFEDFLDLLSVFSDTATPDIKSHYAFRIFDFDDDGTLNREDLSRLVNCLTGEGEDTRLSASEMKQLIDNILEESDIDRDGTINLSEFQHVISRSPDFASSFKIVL
Assay: FP assay, 1536-well qHTS format (primary and confirmatory screen)
Format: binding
Conditions: for Efficacy (%): negative = inhibition; for Curve Class: negative sign = inhibitory curve; for IC50: read-out: IC50

[1] = qHTS primary screen of LOPAC/NPACT libraries
[2] = qHTS primary screen hits, Table S2
[3] = qHTS primary screen hits, Table S2, several classes where COUNT > 1
[4] = qHTS primary screen hits, Table S2, NPACT library

COc1c(C)c(OCC(O)C(C)(C)O)cc2c1CNC2=O (stereo not drawn) [NCGC00385487-01]
Efficacy (%) [1]: -28% | Curve Class [1]: -2.4 | IC50 [1]: 56.2 µM

COc1cc(NS(C)(=O)=O)ccc1Nc1c2ccccc2nc2ccccc12.Cl [NCGC00015113-03]
Efficacy (%) [1]: -25% | Curve Class [1]: -2.2 | IC50 [1]: 56.2 µM

C=C1C(=O)O[C@@H]2[C@H]3C(C)=CC(=O)C3=C(C)CC[C@@H]12 [NCGC00485131-01]
Efficacy (%) [1]: -24% | Curve Class [1]: -1.4 | IC50 [1]: 10 µM

Cc1cc(OCCCc2c(C(=O)O)n(Cc3cccnc3)c3c(-c4c(COc5ccc(N6CCN(S(C)(=O)=O)CC6)cc5)nn(C)c4C)cccc23)cc(C)c1Cl [NCGC00347283-01]
Efficacy (%) [2]: -26% | Curve Class [2]: -2.4 | IC50 [2]: 34.1 µM

Cc1ccc(NS(=O)(=O)c2ccc3[nH]c(=O)[nH]c3c2)cc1C.O=C(O)C(F)(F)F [NCGC00187759-01]
Efficacy (%) [2]: -68% | Curve Class [2]: -2.4 | IC50 [2]: 4 µM

COc1cccc(-c2csc(NC(=O)c3ccncc3NS(=O)(=O)c3ccc(C)cc3)n2)c1.O=C(O)C(F)(F)F [NCGC00319006-01]
Efficacy (%) [2]: -58% | Curve Class [3]: -2.2 | IC50 [2]: 47.4 µM

O=C1Nc2ccc3ncsc3c2/C1=C/c1c[nH]cn1 [NCGC00387501-01]
Curve Class [4]: -1.4 | Efficacy (%) [2]: -27% | IC50 [2]: 7.1 µM

CC(=O)NCc1ccc(-c2csc(Nc3cc(C)cc(C)c3)n2)o1.O=C(O)C(F)(F)F [NCGC00314997-03]
Efficacy (%) [2]: -84% | Curve Class [3]: -2.4 | IC50 [2]: 50.1 µM

CC[C@@H](CO)NC(=O)[C@@H]1C=C2c3cccc4c3c(cn4C)C[C@H]2N(C)C1 [NCGC00024027-09]
Efficacy (%) (qHTS FP screen hits, Table S2): -89% | Curve Class (qHTS FP screen hits, Table S2, one class per curve where COUNT > 1): -2.2 | IC50 (qHTS FP screen hits, Table S2): 44.7 µM

CCN(CC)C(=S)SSC(=S)N(CC)CC [NCGC00016000-10]
Efficacy (%) [2]: -67% | IC50 [2]: 35.8 µM

CCCCc1ncc(/C=C(\Cc2cccs2)C(=O)O)n1Cc1ccc(C(=O)O)cc1.CS(=O)(=O)O [NCGC00261493-01]
Efficacy (%) [1]: -9% | Curve Class [1]: -1.4 | IC50 [1]: 31.6 µM

CCOC(=O)N1CCN([N+]([O-])=NOc2ccc([N+](=O)[O-])cc2[N+](=O)[O-])CC1 [NCGC00261300-01]
Efficacy (%) [2]: -44% | IC50 [2]: 21.3 µM

CO[C@@H](Cc1ccc(OCCc2nc(-c3ccccc3)oc2C)c2ccsc12)C(=O)O [NCGC00378922-01]
Efficacy (%) [1]: -15% | Curve Class [1]: -1.4 | IC50 [1]: 20 µM

CC1OC2OC(=O)C3(C)CC4C5(CO5)C5=CC(=O)OC(C)(C)C5=CC(=O)C4(C)C(C1=O)C23 (stereo not drawn) [NCGC00380663-01]
Curve Class [4]: -2.2 | Efficacy (%) [2]: -57% | IC50 [2]: 31.6 µM

Cl.O=C(CCCCCN1CCN(c2ccccc2-c2ccccc2)CC1)NC1CCCc2ccccc21 (stereo not drawn) [NCGC00186032-01]
Efficacy (%) [1]: -13% | Curve Class [1]: -1.2 | IC50 [1]: 25.1 µM

Oc1c(Br)cc(Br)c2cccnc12 [NCGC00094815-05]
Efficacy (%) [2]: -41% | Curve Class [3]: -2.2

O=C(O)C(F)(F)F.O=C(O)c1ccc(-c2ccc3ncnc(NCc4cccs4)c3c2)o1 [NCGC00189277-01]
Efficacy (%) [2]: -25% | Curve Class [3]: -2.4 | IC50 [2]: 89.1 µM

C=C1CCC2C(C)(COC(C)=O)CCCC2(C)C1CCC(C)CC(=O)O (stereo not drawn) [NCGC00384884-01]
Efficacy (%) [1]: -20% | Curve Class [1]: -1.4 | IC50 [1]: 17.8 µM

Nc1ccc(-c2nc3ccc(-c4nc5cc(N)ccc5[nH]4)cc3[nH]2)cc1 [NCGC00094031-06]
Efficacy (%) [2]: -33% | Curve Class [3]: -2.2 | IC50 [2]: 39.8 µM

COc1cc(Nc2ccc([N+](=O)[O-])cc2C(=O)O)cc2ccccc12 [NCGC00402240-03]
Efficacy (%) [1]: -27% | Curve Class [1]: -2.4 | IC50 [1]: 50.1 µM

CCOc1cc(C(=O)N2CCC(N3CCN(C)CC3)CC2)ccc1Nc1ncc2c(n1)N(C1CCCC1)c1ccccc1C(=O)N2C [NCGC00378965-03]
Efficacy (%) [1]: -25% | Curve Class [1]: -2.4 | IC50 [1]: 56.2 µM
